Results: article PMC11855478, “Bicyclic N,S-Acetals Containing Fused Cysteine-Amide System as New Heterocyclic Class Targeting Human Farnesyltransferase (FTase-h)” (International Journal of Molecular Sciences, 2025)

Columns and labels:
[1] = test system: panel of 60 human cancer cell lines; assay: NCI 60 cell panel one dose screen (whole panel); format: cell-based; set-up: Delta (One Dose Mean Graph): unit not given here; conditions: 1.00E-5 Molar one dose; for Range (One Dose Mean Graph): in % (unit assumed); for Mean Growth Percent: mean over tested cell lines
Description: (§1) 3.4. Cell Proliferation Assay
Selected compounds were tested on a panel of 60 human cancer cell lines at the National Cancer Institute (NCI), Germantown, MD, USA. The cytotoxicity studies were conducted using a 48 h exposure protocol using the sulfo-rhodamine B assay. […]
X. NCI One Dose Mean Graph of sulfides 4a(A -J) and 4b(A-J)
The entire series of sulfides regrouping twenty synthesized FTI-candidates (4aA-J, 4bA-J) were selected by the National Cancer Institute (NCI) for evaluation of their antiproliferative activity against 60 cancer cell lines (see the followings twenty pages for full evaluation reports). […]
inhibiting 36% of the NCI-H522 cells. Such difference between IC50 on human FTase in the nanomolar range and IC50 on cancer cell growth in the micromolar range is characteristic to potent FTIs and was reported previously on different series of compounds (see for example ref erence in the references part […]
Of interest, none of the tested compounds at a high single dose (10 µM) in the full NCI 60 cell panel has shown a cytotoxic profile. […]
inhibitory potential on FTase raise good hope for further investigation of these series as agents fighting

CCRF-CEM (Leukemia) = assay: NCI one dose, CCRF-CEM; format: cell-based, human; conditions: 1.00E-5 Molar one dose
Description: as §1
(§2) Selected compounds were tested on a panel of 60 human cancer cell lines at the National Cancer Institute (NCI), Germantown, MD, USA. The cytotoxicity studies were conducted using a 48 h exposure protocol using the sulfo-rhodamine B assay.

K-562 leukaemia cells = assay: NCI one dose, K-562; format: cell-based, human; conditions: K-562, 1.00E-5 Molar one dose
Description: as §1, §2

MOLT-4 (Leukemia) = assay: NCI one dose, MOLT-4; format: cell-based, human; conditions: MOLT-4, 1.00E-5 Molar one dose
Description: as §1, §2

[2] = test system: A549/ATCC (Non-Small Cell Lung Cancer); assay: NCI one dose, A549/ATCC; format: cell-based, human; conditions: 1.00E-5 Molar one dose
Description: as §1, §2

[3] = test system: EKVX (Non-Small Cell Lung Cancer); assay: NCI one dose, EKVX; format: cell-based, human; conditions: 1.00E-5 Molar one dose
Description: as §1, §2

[4] = test system: HOP-92 (Non-Small Cell Lung Cancer); assay: NCI one dose, HOP-92; format: cell-based, human; conditions: HOP-92, 1.00E-5 Molar one dose
Description: as §1, §2

[5] = test system: NCI-H23 (Non-Small Cell Lung Cancer); assay: NCI one dose, NCI-H23; format: cell-based, human; conditions: NCI-H23, 1.00E-5 Molar one dose
Description: as §1, §2

[6] = test system: NCI-H322M (Non-Small Cell Lung Cancer); assay: NCI one dose, NCI-H322M; format: cell-based, human; conditions: 1.00E-5 Molar one dose
Description: as §1, §2

HCT-116 (Colon Cancer) = assay: NCI one dose, HCT-116; format: cell-based, human; conditions: HCT-116, 1.00E-5 Molar one dose
Description: as §1, §2

HCT-15 (Colon Cancer) = assay: NCI one dose, HCT-15; format: cell-based, human; conditions: HCT-15, 1.00E-5 Molar one dose
Description: as §1, §2

HT29 (Colon Cancer) = assay: NCI one dose, HT29; format: cell-based, human; conditions: HT29, 1.00E-5 Molar one dose
Description: as §1, §2

SF-295 (CNS Cancer) = assay: NCI one dose, SF-295; format: cell-based, human; conditions: SF-295, 1.00E-5 Molar one dose
Description: as §1, §2

SF-539 (CNS Cancer) = assay: NCI one dose, SF-539; format: cell-based, human; conditions: SF-539, 1.00E-5 Molar one dose
Description: as §1, §2

SNB-19 (CNS Cancer) = assay: NCI one dose, SNB-19; format: cell-based, human; conditions: SNB-19, 1.00E-5 Molar one dose
Description: as §1, §2

U251 (CNS Cancer) = assay: NCI one dose, U251; format: cell-based, human; conditions: U251, 1.00E-5 Molar one dose
Description: as §1, §2

MALME-3M (Melanoma) = assay: NCI one dose, MALME-3M; format: cell-based, human; conditions: 1.00E-5 Molar one dose
Description: as §1, §2

M14 (Melanoma) = assay: NCI one dose, M14; format: cell-based, human; conditions: M14, 1.00E-5 Molar one dose
Description: as §1, §2

SK-MEL-2 (Melanoma) = assay: NCI one dose, SK-MEL-2; format: cell-based, human; conditions: SK-MEL-2, 1.00E-5 Molar one dose
Description: as §1, §2

SK-MEL-5 (Melanoma) = assay: NCI one dose, SK-MEL-5; format: cell-based, human; conditions: SK-MEL-5, 1.00E-5 Molar one dose
Description: as §1, §2

UACC-62 (Melanoma) = assay: NCI one dose, UACC-62; format: cell-based, human; conditions: UACC-62, 1.00E-5 Molar one dose
Description: as §1, §2

IGROV1 (Ovarian Cancer) = assay: NCI one dose, IGROV1; format: cell-based, human; conditions: IGROV1, 1.00E-5 Molar one dose
Description: as §1, §2

OVCAR-4 (Ovarian Cancer) = assay: NCI one dose, OVCAR-4; format: cell-based, human; conditions: OVCAR-4, 1.00E-5 Molar one dose
Description: as §1, §2

OVCAR-5 (Ovarian Cancer) = assay: NCI one dose, OVCAR-5; format: cell-based, human; conditions: OVCAR-5, 1.00E-5 Molar one dose
Description: as §1, §2

OVCAR-8 (Ovarian Cancer) = assay: NCI one dose, OVCAR-8; format: cell-based, human; conditions: OVCAR-8, 1.00E-5 Molar one dose
Description: as §1, §2

786-0 (Renal Cancer) = assay: NCI one dose, 786-0; format: cell-based, human; conditions: 786-0, 1.00E-5 Molar one dose
Description: as §1, §2

A498 (Renal Cancer) = assay: NCI one dose, A498; format: cell-based, human; conditions: A498, 1.00E-5 Molar one dose
Description: as §1, §2

ACHN (Renal Cancer) = assay: NCI one dose, ACHN; format: cell-based, human; conditions: 1.00E-5 Molar one dose
Description: as §1, §2

RXF 393 (Renal Cancer) = assay: NCI one dose, RXF 393; format: cell-based, human; conditions: RXF 393, 1.00E-5 Molar one dose
Description: as §1, §2

[7] = test system: MDA-MB-231/ATCC (Breast Cancer); assay: NCI one dose, MDA-MB-231/ATCC; format: cell-based, human; conditions: 1.00E-5 Molar one dose
Description: as §1, §2

HS 578T (Breast Cancer) = assay: NCI one dose, HS 578T; format: cell-based, human; conditions: 1.00E-5 Molar one dose
Description: as §1, §2

SMILES	Delta (One Dose Mean Graph) [1]	Range (One Dose Mean Graph) [1]	Mean Growth Percent [1]	Growth Percent (CCRF-CEM (Leukemia))	Growth Percent (K-562 leukaemia cells)	Growth Percent (MOLT-4 (Leukemia))	Growth Percent [2]	Growth Percent [3]	Growth Percent [4]	Growth Percent [5]	Growth Percent [6]	Growth Percent (HCT-116 (Colon Cancer))	Growth Percent (HCT-15 (Colon Cancer))	Growth Percent (HT29 (Colon Cancer))	Growth Percent (SF-295 (CNS Cancer))	Growth Percent (SF-539 (CNS Cancer))	Growth Percent (SNB-19 (CNS Cancer))	Growth Percent (U251 (CNS Cancer))	Growth Percent (MALME-3M (Melanoma))	Growth Percent (M14 (Melanoma))	also measured
O=C(NCc1cccc(C(F)(F)F)c1)[C@@H]1CS[C@H]2c3ccccc3C(=O)N12 [4aD]	22.37	46.64	97.10%	99.20%	89.33%	86.93%	94.49%	103.29%	79.43%	100.33%	93.97%	91.63%	100.16%	91.88%	95.03%	101.49%	95.15%	94.74%	106.15%	97.50%	Growth Percent (SK-MEL-2 (Melanoma)): 94.10%; Growth Percent (SK-MEL-5 (Melanoma)): 110.95%; Growth Percent (UACC-62 (Melanoma)): 89.84%; Growth Percent (IGROV1 (Ovarian Cancer)): 95.38%; Growth Percent (OVCAR-4 (Ovarian Cancer)): 105.79%; Growth Percent (OVCAR-5 (Ovarian Cancer)): 97.67%; Growth Percent (OVCAR-8 (Ovarian Cancer)): 94.59%; Growth Percent (786-0 (Renal Cancer)): 88.74%; Growth Percent (A498 (Renal Cancer)): 103.16%; Growth Percent (ACHN (Renal Cancer)): 101.09%; Growth Percent (RXF 393 (Renal Cancer)): 114.41%; Growth Percent [7]: 97.44%; Growth Percent (HS 578T (Breast Cancer)): 110.09%
O=C(NCc1ccccc1C(F)(F)F)[C@@H]1CS[C@H]2c3ccccc3C(=O)N12 [4aC]	21.44	40.62	96.28%	93.25%	94.12%	85.46%	90.42%	99.35%	77.56%	105.15%	103.27%	87.63%	103.73%	91.65%	94.85%	95.88%	95.80%	91.06%	108.73%	95.62%	Growth Percent (SK-MEL-2 (Melanoma)): 99.87%; Growth Percent (SK-MEL-5 (Melanoma)): 107.31%; Growth Percent (UACC-62 (Melanoma)): 88.82%; Growth Percent (IGROV1 (Ovarian Cancer)): 98.93%; Growth Percent (OVCAR-4 (Ovarian Cancer)): 105.74%; Growth Percent (OVCAR-5 (Ovarian Cancer)): 83.18%; Growth Percent (OVCAR-8 (Ovarian Cancer)): 94.34%; Growth Percent (786-0 (Renal Cancer)): 86.33%; Growth Percent (A498 (Renal Cancer)): 98.14%; Growth Percent (ACHN (Renal Cancer)): 99.65%; Growth Percent (RXF 393 (Renal Cancer)): 115.46%; Growth Percent [7]: 91.35%; Growth Percent (HS 578T (Breast Cancer)): 104.53%
O=C(NCc1ccccc1)[C@@H]1CS[C@H]2c3ccccc3C(=O)N12 [4aA]	20.43	35.31	99.75%	96.52%	101.44%	95.69%	97.86%	105.39%	87.72%	100.85%	102.34%	87.66%	103.68%	99.44%	99.96%	102.43%	96.70%	97.80%	111.55%	94.47%	Growth Percent (SK-MEL-2 (Melanoma)): 105.03%; Growth Percent (SK-MEL-5 (Melanoma)): 114.63%; Growth Percent (UACC-62 (Melanoma)): 97.72%; Growth Percent (IGROV1 (Ovarian Cancer)): 105.80%; Growth Percent (OVCAR-4 (Ovarian Cancer)): 111.39%; Growth Percent (OVCAR-5 (Ovarian Cancer)): 91.72%; Growth Percent (OVCAR-8 (Ovarian Cancer)): 101.18%; Growth Percent (786-0 (Renal Cancer)): 85.46%; Growth Percent (A498 (Renal Cancer)): 102.15%; Growth Percent (ACHN (Renal Cancer)): 102.35%; Growth Percent (RXF 393 (Renal Cancer)): 114.31%; Growth Percent [7]: 100.79%; Growth Percent (HS 578T (Breast Cancer)): 107.68%
